Measurements published in ChEMBL document CHEMBL1155992, “Bioisosteric replacement of the hydrazide pharmacophore of the cannabinoid-1 receptor antagonist SR141716A. Part I: potent, orally-active 1,4-disubstituted imidazoles” (Bioorg Med Chem Lett, 2009).

What was measured:
[1] = Intrinsic clearance in human liver microsomes; format: ADME, Microsome
[2] = organism: Homo sapiens; assay: Selectivity index, ratio of Ki for human CB2 receptor to Ki for human CB1 receptor
[3] = molecular target: Cannabinoid receptor 1 (Homo sapiens, UniProt P21554); assay: Antagonist activity at human CB1 receptor transfected in CHO-K1cells by GTPgamma[35S] binding assay; format: functional, cell-based, CHO-K1
Sequence of Cannabinoid receptor 1 (Homo sapiens, UniProt P21554) (P21554 whole entry): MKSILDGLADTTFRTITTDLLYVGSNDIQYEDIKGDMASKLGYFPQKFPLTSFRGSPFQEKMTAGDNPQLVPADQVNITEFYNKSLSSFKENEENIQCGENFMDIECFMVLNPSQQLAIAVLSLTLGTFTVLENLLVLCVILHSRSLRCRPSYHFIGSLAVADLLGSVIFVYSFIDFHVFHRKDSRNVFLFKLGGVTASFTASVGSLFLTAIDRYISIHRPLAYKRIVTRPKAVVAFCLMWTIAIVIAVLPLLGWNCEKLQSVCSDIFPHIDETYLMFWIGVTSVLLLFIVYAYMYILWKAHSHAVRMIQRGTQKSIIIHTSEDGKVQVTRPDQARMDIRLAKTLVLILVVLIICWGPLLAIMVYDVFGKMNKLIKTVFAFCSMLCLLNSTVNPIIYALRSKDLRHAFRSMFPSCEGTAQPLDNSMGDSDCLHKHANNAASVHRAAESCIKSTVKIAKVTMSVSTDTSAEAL

[4] = molecular target: Cannabinoid receptor 1 (Rattus norvegicus, UniProt P20272); assay: Displacement of [3H]SR141716A from rat brain CB1 receptor
Sequence of Cannabinoid receptor 1 (Rattus norvegicus, UniProt P20272) (P20272 whole entry): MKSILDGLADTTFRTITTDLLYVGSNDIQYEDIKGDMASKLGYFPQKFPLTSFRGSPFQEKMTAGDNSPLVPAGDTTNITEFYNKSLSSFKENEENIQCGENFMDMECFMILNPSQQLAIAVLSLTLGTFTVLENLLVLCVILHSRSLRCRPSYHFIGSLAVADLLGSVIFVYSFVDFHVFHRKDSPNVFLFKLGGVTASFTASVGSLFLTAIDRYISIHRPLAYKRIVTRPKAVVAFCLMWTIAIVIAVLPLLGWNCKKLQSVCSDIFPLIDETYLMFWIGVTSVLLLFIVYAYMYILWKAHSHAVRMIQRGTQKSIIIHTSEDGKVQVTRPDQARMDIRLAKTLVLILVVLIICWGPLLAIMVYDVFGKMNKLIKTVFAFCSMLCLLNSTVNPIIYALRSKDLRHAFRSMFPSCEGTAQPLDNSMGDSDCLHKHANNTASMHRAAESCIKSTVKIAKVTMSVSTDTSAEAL

[5] = molecular target: Cytochrome P450 2D6 (Homo sapiens, UniProt P10635); assay: Inhibition of CYP2D6; format: ADME
Sequence of Cytochrome P450 2D6 (P10635 whole entry): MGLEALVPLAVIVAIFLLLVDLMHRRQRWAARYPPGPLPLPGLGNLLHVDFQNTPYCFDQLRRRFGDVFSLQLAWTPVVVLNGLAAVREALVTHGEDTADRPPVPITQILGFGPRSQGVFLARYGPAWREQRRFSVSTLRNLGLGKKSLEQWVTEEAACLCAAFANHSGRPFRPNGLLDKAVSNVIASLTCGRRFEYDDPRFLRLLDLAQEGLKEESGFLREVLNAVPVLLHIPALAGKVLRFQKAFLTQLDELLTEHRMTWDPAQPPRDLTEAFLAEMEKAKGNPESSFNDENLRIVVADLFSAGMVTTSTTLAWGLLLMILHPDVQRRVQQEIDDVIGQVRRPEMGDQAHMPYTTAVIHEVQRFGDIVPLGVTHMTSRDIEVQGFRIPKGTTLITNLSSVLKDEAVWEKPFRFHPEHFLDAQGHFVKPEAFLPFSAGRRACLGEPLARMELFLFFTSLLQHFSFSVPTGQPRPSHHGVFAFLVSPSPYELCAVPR

[6] = molecular target: Cytochrome P450 2C19 (Homo sapiens, UniProt P33261); assay: Inhibition of CYP2C19; format: ADME
Sequence of Cytochrome P450 2C19 (P33261 whole entry): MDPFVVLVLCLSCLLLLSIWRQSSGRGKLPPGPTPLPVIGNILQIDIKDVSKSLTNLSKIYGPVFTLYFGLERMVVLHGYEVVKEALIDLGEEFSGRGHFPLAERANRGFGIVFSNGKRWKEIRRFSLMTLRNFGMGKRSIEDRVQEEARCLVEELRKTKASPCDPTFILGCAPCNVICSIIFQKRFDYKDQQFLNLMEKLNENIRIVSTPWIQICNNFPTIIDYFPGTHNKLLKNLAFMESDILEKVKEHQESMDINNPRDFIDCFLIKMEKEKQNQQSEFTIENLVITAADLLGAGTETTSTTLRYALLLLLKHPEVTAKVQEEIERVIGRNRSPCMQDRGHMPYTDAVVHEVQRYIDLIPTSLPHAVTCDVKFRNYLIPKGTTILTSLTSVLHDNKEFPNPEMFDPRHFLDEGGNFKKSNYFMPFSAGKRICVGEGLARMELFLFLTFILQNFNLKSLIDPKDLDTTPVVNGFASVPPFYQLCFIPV

[7] = molecular target: Cytochrome P450 3A4 (Homo sapiens, UniProt P08684); assay: Inhibition of CYP3A4; format: ADME
Sequence of Cytochrome P450 3A4 (P08684 whole entry): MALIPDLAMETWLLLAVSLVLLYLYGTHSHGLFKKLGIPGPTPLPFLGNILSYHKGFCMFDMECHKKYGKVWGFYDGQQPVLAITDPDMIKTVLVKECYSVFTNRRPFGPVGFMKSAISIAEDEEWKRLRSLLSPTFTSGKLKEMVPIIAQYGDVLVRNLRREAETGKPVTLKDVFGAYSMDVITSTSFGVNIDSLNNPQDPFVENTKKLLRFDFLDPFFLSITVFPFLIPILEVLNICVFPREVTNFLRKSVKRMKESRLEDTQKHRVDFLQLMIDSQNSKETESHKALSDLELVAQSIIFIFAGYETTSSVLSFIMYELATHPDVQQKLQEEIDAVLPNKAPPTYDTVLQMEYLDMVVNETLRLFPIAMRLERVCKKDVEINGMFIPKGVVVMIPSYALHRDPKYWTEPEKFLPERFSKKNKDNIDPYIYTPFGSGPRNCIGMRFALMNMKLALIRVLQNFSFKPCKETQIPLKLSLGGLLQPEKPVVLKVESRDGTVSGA

[8] = test system: Mus musculus; assay: Analgesic activity in CP-55940-induced ICR mouse assessed as reduction in latency to jump, kick, lick, flick paw at 10 mg/kg, ip by hotplate assay; format: functional; set-up: scale not given: the % may be the effect or the level left; details: route intraperitoneal
[9] = Volume of distribution in rat at 2 mg/kg, iv; format: ADME, organism-based; set-up: dose 2 mg/kg, route intravenous; details: in vivo
[10] = molecular target: T1, Cytochrome P450 1A2 (Homo sapiens, UniProt P05177); assay: Inhibition of CYP1A2; format: ADME
T1 sequence (P05177 whole entry): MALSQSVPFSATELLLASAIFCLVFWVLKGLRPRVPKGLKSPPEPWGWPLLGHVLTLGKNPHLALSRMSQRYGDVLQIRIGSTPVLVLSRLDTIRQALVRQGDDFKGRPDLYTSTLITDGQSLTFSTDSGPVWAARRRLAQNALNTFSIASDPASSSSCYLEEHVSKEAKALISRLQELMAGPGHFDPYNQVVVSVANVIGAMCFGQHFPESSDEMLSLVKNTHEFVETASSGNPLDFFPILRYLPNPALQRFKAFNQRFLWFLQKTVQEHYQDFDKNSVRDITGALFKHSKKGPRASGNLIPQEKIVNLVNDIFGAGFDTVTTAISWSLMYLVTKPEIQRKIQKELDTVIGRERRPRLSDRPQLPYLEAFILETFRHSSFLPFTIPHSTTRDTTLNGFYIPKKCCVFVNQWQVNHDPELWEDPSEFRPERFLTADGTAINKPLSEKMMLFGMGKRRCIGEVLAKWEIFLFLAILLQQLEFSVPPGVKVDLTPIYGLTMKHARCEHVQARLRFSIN

[11] = test system: Mus musculus; assay: Effect on hypothermic activity in CP-55940-induced ICR mouse assessed as reduction in body temperature at 10 mg/kg, ip measured after 65 mins of CP-55940 challenge by tetrad assay; format: functional; set-up: scale not given: the % may be the effect or the level left; details: route intraperitoneal
[12] = test system: Rattus norvegicus; assay: Antiobesity activity in overnight fasted Sprague-Dawley rat assessed as reduction in food intake in at 10 mg/kg, po; format: functional; set-up: scale not given: the % may be the effect or the level left
[13] = Half life in rat at 2 mg/kg, iv; format: ADME, organism-based; set-up: dose 2 mg/kg, route intravenous; details: in vivo
[14] = test system: Rattus norvegicus; assay: Clearance in rat at 2 mg/kg, iv; format: ADME, organism-based; set-up: dose 2 mg/kg, route intravenous; details: in vivo
[15] = molecular target: Cytochrome P450 2C9 (Homo sapiens, UniProt P11712); assay: Inhibition of CYP2C9; format: ADME
Sequence of Cytochrome P450 2C9 (P11712 whole entry): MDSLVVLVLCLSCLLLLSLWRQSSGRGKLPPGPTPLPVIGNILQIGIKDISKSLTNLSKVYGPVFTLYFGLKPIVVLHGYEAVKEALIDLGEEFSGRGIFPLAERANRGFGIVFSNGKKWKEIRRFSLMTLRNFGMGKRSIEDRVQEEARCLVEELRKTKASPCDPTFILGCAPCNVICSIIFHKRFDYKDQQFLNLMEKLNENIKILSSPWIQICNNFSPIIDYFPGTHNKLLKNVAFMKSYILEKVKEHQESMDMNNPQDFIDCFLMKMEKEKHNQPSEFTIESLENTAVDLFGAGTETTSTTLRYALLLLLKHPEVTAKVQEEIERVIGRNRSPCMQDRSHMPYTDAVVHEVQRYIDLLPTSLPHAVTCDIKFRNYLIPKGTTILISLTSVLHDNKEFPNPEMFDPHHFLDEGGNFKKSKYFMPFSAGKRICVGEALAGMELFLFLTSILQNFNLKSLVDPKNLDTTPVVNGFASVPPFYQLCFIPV

[16] = Oral bioavailability in rat at 5 mg/kg; format: ADME, organism-based; details: in vivo
[17] = test system: Rattus norvegicus; assay: Antiobesity activity in overnight fasted Sprague-Dawley rat assessed as reduction in food intake in at 3 mg/kg, po; format: functional; set-up: scale not given: the % may be the effect or the level left

Compound | Ratio Ki [2] | Ki [3] [nM] | Ki [4] [nM] | also measured
Cc1c(-c2cnc(C(C)C)[nH]2)nn(-c2ccc(Cl)cc2Cl)c1-c1ccc(Cl)cc1 | > 100 | 9.5 | 7.2 | CLint scaled [1]: 42.5 mL/min/kg
Cc1c(-c2ncc(C(C)C)[nH]2)nn(-c2ccc(Cl)cc2Cl)c1-c1ccc(Cl)cc1 | > 100 | 5.2 | 9.5 | CLint scaled [1]: 42.5 mL/min/kg
Cc1c(-c2ncn(C(C)C)c2CO)nn(-c2ccc(Cl)cc2Cl)c1-c1ccc(Cl)cc1 | > 100 | – | 19 | –
Cc1c(-c2ncn(C(C)C)c2C)nn(-c2ccc(Cl)cc2Cl)c1-c1ccc(Cl)cc1 | > 100 | 9 | 5.7 | –
Cc1c(-c2nc[nH]c2C(C)C)nn(-c2ccccc2Cl)c1-c1ccc(Cl)cc1 | > 100 | – | 31 | –
Cc1c(-c2cn(C(C)(C)C)cn2)nn(-c2ccc(Cl)cc2Cl)c1-c1ccc(Cl)cc1 | > 100 | – | 14 | –
CCc1c(-c2nn(-c3ccc(Cl)cc3Cl)c(-c3ccc(Cl)cc3)c2C)ncn1C(C)C | > 100 | – | 38 | –
Cc1c(-c2cn(C(C)(C)c3ccccc3)cn2)nn(-c2ccc(Cl)cc2Cl)c1-c1ccc(Cl)cc1 | > 100 | 0.1 | 1.8 | –
CCn1cnc(-c2nn(-c3ccc(Cl)cc3Cl)c(-c3ccc(Cl)cc3)c2C)c1 | > 100 | – | 20 | –
Cc1c(-c2cn(C(C)(C)c3ccccc3)cn2)nn(-c2ccccc2Cl)c1-c1ccc(Cl)cc1 | > 100 | 0.1 | 1.1 | –
Cc1c(-c2cn(C3CCC3)cn2)nn(-c2ccc(Cl)cc2Cl)c1-c1ccc(Cl)cc1 | > 100 | 5 | 10 | –
Cc1c(-c2cn(C(C)C)cn2)nn(-c2ccccc2Cl)c1-c1ccc(Cl)cc1 | > 100 | 7.6 | 5.3 | IC50 [5]: > 10 µM; IC50 [6]: > 10 µM; IC50 [7]: > 10 µM; Activity [8]: 56%; Vd [9]: 2.5 L/kg; IC50 [10]: > 10 µM; Activity [11]: 33%; Activity [12]: 44%; half-life [13]: 90 min; clearance [14]: 21 mL/min/kg; IC50 [15]: > 10 µM; bioavailability [16]: 42%; Activity [17]: -31%
Cc1c(-c2cn(C3CCCCC3)cn2)nn(-c2ccc(Cl)cc2Cl)c1-c1ccc(Cl)cc1 | > 100 | 4.7 | 8.6 | –
Cc1c(-c2cn(C3CC3)cn2)nn(-c2ccccc2Cl)c1-c1ccc(Cl)cc1 | > 100 | 7.9 | 7.4 | –
Cc1c(-c2cn(Cc3ccccc3)cn2)nn(-c2ccc(Cl)cc2Cl)c1-c1ccc(Cl)cc1 | > 100 | – | 14 | –
Cc1c(-c2cn(C3CCOCC3)cn2)nn(-c2ccc(Cl)cc2Cl)c1-c1ccc(Cl)cc1 | > 100 | – | 25 | CLint scaled [1]: < 7 mL/min/kg
Cc1c(-c2cn(C(C)C)cn2)nn(-c2ccc(Cl)cc2Cl)c1-c1ccc(Cl)cc1 | > 100 | 9 | 4.9 | CLint scaled [1]: 14 mL/min/kg
Cc1c(-c2cn(-c3ccccc3)cn2)nn(-c2ccccc2Cl)c1-c1ccc(Cl)cc1 | > 100 | 3.8 | 19 | –
